Source: patent US5298397A, “Method of assaying d-vanillylmandelic acid” (Yamasa Shoyu Kabushiki Kaisha, priority 1989, dated 1994)

How the values were obtained:
anti-D-VMA antibody = experiment: Cross-reactivity of anti-D-VMA monoclonal antibodies with acidic catecholamine metabolites (competitive enzyme immunoassay); format: binding, mouse; conditions: reactivity with D-VMA defined as 100%; for Antibody Reactivity (% by weight): from concentration ratios at 50% inhibition on standard curves
Experimental: Three days after the final booster, spleen cells of the mouse were enucleated and washed with Eagle's minimum essential medium (MEM). […] The spleen cells and P3 U1 were mixed at 10:1 and the mixture was centrifuged. To the pellets obtained was gradually added 1 ml of an MEM solution containing 50% polyethylene glycol (PEG) 1000 to cause cell fusion. […] 0.1 ml of the suspension was apportioned to each well of a 96-well microplate. One day thereafter, 0.1 ml of HAT medium was added. […] Into each well of the 96-well microplate previously coated with HSA and the 96-well microplate coated with D-VMA-HSA (10 μg/ml) was added […] of the above diluted culture supernatant. […] After one hour at room temperature, by the use of the same reagent as in the case of the ELISA method as described above except for using O-phenylenediamine as the chromogenic reagent, enzyme immunoassay was practiced according to the competitive reaction method.

[1] = test system: peroxidase-labeled anti-D-VMA antibody; experiment: Competitive enzyme immunoassay of D-VMA or L-VMA solutions with peroxidase-labeled anti-D-VMA antibody on solid-phase antigen plate; format: binding, mouse; conditions: conclusion drawn from Table 2
Experimental: A volume of 50 μl of the D-VMA solution or L-VMA solution as described above and 50 μl of the peroxidase-labeled anti-D-VMA antibody solution were added into each well, and reaction was carried out stationarily at room temperature for one hour.
After reaction, the solution in each well was discarded and each well was washed with a 0.9% aqueous sodium chloride solution.
After washing, 100 μl of a substrate solution (containing 1 mM H2 O2 and […] TMBZ) was added and left standing for 25 minutes. A volume of 100 μl of a reaction stopping solution (a 2N sulfuric acid solution) was added, and absorbance at 450 nm was measured by the use of a 96-well microplate reader MPR-A4 (produced by Toso K. K.).
After measurement, from the calibration curve prepared by the use of DL-VMA of a known concentration as a standard substance (FIG. 1), the VMA concentration corresponding to the above absorbance was determined.

## COc1cc([C@@H](O)C(=O)O)ccc1O [D-VMA, D-vanillylmandelic acid]
anti-D-VMA antibody
  Antibody Reactivity (% by weight): 100 % by weight

## O=C(O)Cc1ccc(O)c(O)c1 [3,4-Dihydroxyphenylacetic acid (DOPAC), 3,4-Dihydroxyphenylacetic acid]
anti-D-VMA antibody
  Antibody Reactivity (% by weight): < 0.01 % by weight

## COc1cc([C@H](O)C(=O)O)ccc1O [L-VMA]
[1]
  reactivity of the labeled antibody: substantially no reactivity
anti-D-VMA antibody
  cross-reactivity of the antibody reagent: ≤ 1%
  Antibody Reactivity (% by weight): < 1 % by weight

## CNCC(O)c1ccc(O)c(OC)c1 (stereo not shown) [Metanepherine]
anti-D-VMA antibody
  Antibody Reactivity (% by weight): < 0.01 % by weight

## COc1cc(C(O)C(=O)O)ccc1O (racemic) [DL-VMA, vanillylmandelic acid]
anti-D-VMA antibody
  Antibody Reactivity (% by weight): 50 % by weight

## COc1cc(CC(=O)C(=O)O)ccc1O [Vanillylpyruvic acid]
anti-D-VMA antibody
  Antibody Reactivity (% by weight): 4 % by weight

## COc1cc(CC(=O)O)ccc1O [Homovanilic acid (HVA), Homovanilic acid]
anti-D-VMA antibody
  Antibody Reactivity (% by weight): < 0.01 % by weight

## O=C(O)C(O)c1ccc(O)c(O)c1 (stereo not shown) [3,4-Dihydroxymandelic acid (DOMA), 3,4-Dihydroxymandelic acid]
anti-D-VMA antibody
  Antibody Reactivity (% by weight): 4 % by weight
